The subject of the test is B6C3F1 mice, Lewis lung carcinoma iv, survival T/C. The test is described as follows: NCI In Vivo Anticancer Drug Screen. Data for tumor model Lewis Lung Carcinoma (intravenous) in B6C3F1 mice. Conditions: endpoint: median survival time, schedule: Q01DX009 (ip), higher = longer survival. As to the method: The antitumor activity of compounds was measured in mice bearing transplantable tumors. Survival or tumor size were measured and the results are expressed as the measurement made in the treated group (T) divided by the measurement made in the vehicle treated control group (C). The tumor model used in this assay is Lewis Lung Carcinoma (intravenous) in B6C3F1 mice

[1] abbreviates: dose: 12.5 mg/kg/injection, vehicle: Klucel (hydroxypropylcellulose) (HPC).
Setting [2] is: dose: 25.0 mg/kg/injection, vehicle: Klucel (hydroxypropylcellulose) (HPC).
Where [3] appears, read: dose: 50.0 mg/kg/injection, vehicle: Klucel (hydroxypropylcellulose) (HPC).
Setting [4] is: dose: 100.0 mg/kg/injection, vehicle: Klucel (hydroxypropylcellulose) (HPC).
[5] abbreviates: dose: 200.0 mg/kg/injection, vehicle: Klucel (hydroxypropylcellulose) (HPC).
Where [6] appears, read: dose: 6.25 mg/kg/injection, vehicle: saline with Tween-80.
The mark [7] stands for this setting: dose: 12.5 mg/kg/injection, vehicle: saline with Tween-80.
The mark [8] stands for this setting: dose: 25.0 mg/kg/injection, vehicle: saline with Tween-80.
Setting [9] is: dose: 50.0 mg/kg/injection, vehicle: saline with Tween-80.
Where [10] appears, read: dose: 100.0 mg/kg/injection, vehicle: saline with Tween-80.
The mark [11] stands for this setting: dose: 200.0 mg/kg/injection, vehicle: saline with Tween-80.
Where [12] appears, read: dose: 400.0 mg/kg/injection, vehicle: Klucel (hydroxypropylcellulose) (HPC).

Several values for one entry are separate records, joined by “and”; a condition that tells them apart may be missing. Equal values may be shown once. Inconclusive results and toxic doses are left out.

Consider `COc1c(C=O)c2c(c(OC)c1OC)-c1ccc(OC)c(=O)cc1[C@@H](NC(C)=O)CC2`, for which the T/C is 95 % of control (dose: 1.56 mg/kg/injection, vehicle: Klucel (hydroxypropylcellulose) (HPC)); 98 % of control (dose: 3.12 mg/kg/injection, vehicle: Klucel (hydroxypropylcellulose) (HPC)); 95 % of control (dose: 6.25 mg/kg/injection, vehicle: Klucel (hydroxypropylcellulose) (HPC)).

Take `Cc1cc(N2C(=O)CCSC2=S)ccc1Cl`: the T/C reads like this: under setting [1], 120 % of control; under setting [2], 97 % of control; under setting [3], 102 % of control; under setting [4], 111 % of control; under setting [5], 124 % of control.

In the case of `O=Cc1c(O)c2ccccc2[nH]c1=O`, the T/C is 107 % of control under setting [6]; 105 % of control under setting [7]; 113 % of control under setting [8]; 107 % of control under setting [9]; 116 % of control under setting [10].

With `CCCCCCCCCCCCCCCCCC(=O)Nc1ccn(C2OC(CO)C(O)C2O)c(=O)n1` (centres undefined), the T/C runs as follows: (dose: 12.5 mg/kg/injection, vehicle: suspension in saline) 103 % of control and 109 % of control; (dose: 25.0 mg/kg/injection, vehicle: suspension in saline) 119 % of control; (dose: 50.0 mg/kg/injection, vehicle: suspension in saline) 160 % of control and 164 % of control.

For `O=C(Nc1ccccc1C(=O)O)c1cc([N+](=O)[O-])cc([N+](=O)[O-])c1`, the T/C under setting [7] was 96 % of control; the T/C under setting [8] is 91 % of control; the T/C under setting [9] was 102 % of control; the T/C under setting [10] was 102 % of control; the T/C under setting [11] was 95 % of control.

Turning to `O=C(O)C1(NO)CCCCC1`, the T/C by setting is: under setting [1], 95 % of control and 106 % of control; under setting [2], 101 % of control and 106 % of control; under setting [3], 100 % of control and 101 % of control; under setting [4], 102 % of control and 105 % of control; under setting [5], 95 % of control and 108 % of control; under setting [12], 97 % of control and 109 % of control.

For the molecule `C1OC1C1CO1` (centres undefined), the T/C is, setting by setting: (dose: 1.25 mg/kg/injection, vehicle: suspension in saline) 101 % of control; (dose: 2.5 mg/kg/injection, vehicle: suspension in saline) 112 % of control; (dose: 5.0 mg/kg/injection, vehicle: suspension in saline) 105 % of control; (dose: 10.0 mg/kg/injection, vehicle: suspension in saline) 99 % of control; (dose: 20.0 mg/kg/injection, vehicle: suspension in saline) 101 % of control; (dose: 40.0 mg/kg/injection, vehicle: suspension in saline) 108 % of control.

Consider `CNNCc1ccc(C(=O)NC(C)C)cc1`, for which the T/C by setting is: under setting [4], 153 % of control; under setting [5], 151 % of control; under setting [12], 200 % of control.

Consider `CC(C)NC(=O)N(CCCCBr)N=O`, for which the T/C is 114 % of control (dose: 12.0 mg/kg/injection, vehicle: Klucel (hydroxypropylcellulose) (HPC)); 98 % of control under setting [2]; 116 % of control under setting [3].

Consider `Nc1nnc[se]1`, for which the T/C runs as follows: (dose: 3.12 mg/kg/injection, vehicle: saline with Tween-80) 122 % of control; under setting [6], 123 % of control; under setting [7], 123 % of control.

Turning to `CC(=O)Oc1c[nH]c(=O)[nH]c1=O`, the T/C runs as follows: (dose: 12.5 mg/kg/injection, vehicle: distilled water + Tween-80) 102 % of control; (dose: 25.0 mg/kg/injection, vehicle: distilled water + Tween-80) 95 % of control; (dose: 50.0 mg/kg/injection, vehicle: distilled water + Tween-80) 92 % of control; (dose: 100.0 mg/kg/injection, vehicle: distilled water + Tween-80) 100 % of control; (dose: 200.0 mg/kg/injection, vehicle: distilled water + Tween-80) 95 % of control; (dose: 400.0 mg/kg/injection, vehicle: distilled water + Tween-80) 94 % of control.

With `CC1=C(O)C(=O)[C@@H]2O[C@@H]2C1=O`, the T/C by setting is: (dose: 0.78 mg/kg/injection, vehicle: saline) 94 % of control and 107 % of control; (dose: 1.56 mg/kg/injection, vehicle: saline) 89 % of control and 103 % of control; (dose: 3.12 mg/kg/injection, vehicle: saline) 92 % of control and 104 % of control; (dose: 6.25 mg/kg/injection, vehicle: saline) 95 % of control and 104 % of control; (dose: 12.5 mg/kg/injection, vehicle: saline) 100 % of control and 101 % of control.

`CC(=O)O[C@@]1(C)[C@@H](C)C(=O)O[C@@H]2CCN3CC=C(COC(=O)[C@]1(C)O)[C@H]23`: the T/C by setting is: under setting [8], 110 % of control; under setting [9], 113 % of control; under setting [10], 285 % of control.

On to `CN(C)N=Nc1cccc(C(N)=O)c1`, for which the T/C reads like this: (dose: 10.0 mg/kg/injection, vehicle: Klucel (hydroxypropylcellulose) (HPC)) 114 % of control; (dose: 20.0 mg/kg/injection, vehicle: Klucel (hydroxypropylcellulose) (HPC)) 115 % of control.

Take `CN(C)c1ncnc2c1ncn2C1OC(CO)C(N)C1O` (centres undefined): the T/C (dose: 25.0 mg/kg/injection, vehicle: saline) is 112 % of control.

As to `CNC(=O)/C=C/C1=CN2C(=O)c3ccc(C)c(O)c3NC(OC)C2C1` (centres undefined), the T/C (dose: 0.01 mg/kg/injection, vehicle: saline) is 90 % of control and 113 % of control; the T/C (dose: 0.02 mg/kg/injection, vehicle: saline) was 93 % of control; the T/C (dose: 0.03 mg/kg/injection, vehicle: saline) was 96 % of control; the T/C (dose: 0.05 mg/kg/injection, vehicle: saline) was 97 % of control and 107 % of control; the T/C (dose: 0.1 mg/kg/injection, vehicle: saline) is 90 % of control and 103 % of control.

Consider `Cc1cc(=O)n2c3c(c4c(cc13)c(CN(C)C)cc(=O)n4C)OC2`, for which the T/C under setting [6] is 106 % of control, the T/C under setting [7] was 105 % of control, the T/C under setting [8] is 109 % of control and the T/C under setting [9] is 123 % of control.

With `O=C(CCCCCCC(=O)ON1C(=O)CCC1=O)ON1C(=O)CCC1=O`, the T/C under setting [8] is 94 % of control, the T/C under setting [9] was 94 % of control and the T/C under setting [10] is 93 % of control.

`O=CC=O`: the T/C reads like this: under setting [6], 102 % of control; under setting [7], 116 % of control; under setting [8], 107 % of control; under setting [9], 107 % of control; under setting [10], 95 % of control; under setting [11], 101 % of control.

On to `CCCCNCCCNCCCNC(=O)c1csc(-c2csc(CCNC(=O)C(NC(=O)C(C)C(O)C(C)NC(=O)C(NC(=O)c3nc(C(CC(N)=O)NCC(N)C(N)=O)nc(N)c3C)C(OC3OC(CO)C(O)C(O)C3OC3OC(CO)C(O)C(OC(N)=O)C3O)c3cnc[nH]3)C(C)O)n2)n1` (centres undefined), for which the T/C is, setting by setting: (dose: 2.0 mg/kg/injection, vehicle: saline) 112 % of control; (dose: 8.0 mg/kg/injection, vehicle: saline) 155 % of control; (dose: 16.0 mg/kg/injection, vehicle: saline) 184 % of control.

With `COc1ccc(CC2C(=O)NC(C)C(=O)N(C)C3Cc4ccc(cc4)Oc4cc(ccc4O)CC(C(=O)NC(C)C(=O)NC(C)C(=O)N2C)N(C)C3=O)cc1` (centres undefined), the T/C runs as follows: (dose: 0.25 mg/kg/injection, vehicle: saline with Tween-80) 110 % of control; (dose: 0.5 mg/kg/injection, vehicle: saline with Tween-80) 107 % of control; (dose: 1.0 mg/kg/injection, vehicle: saline with Tween-80) 106 % of control; (dose: 2.0 mg/kg/injection, vehicle: saline with Tween-80) 106 % of control.

These data come from PubChem BioAssay AID276 (DTP/NCI, 2004).
